Test results published in the Kinase Knowledgebase extract (Sharma et al. 2016).

Each molecule was assayed against CDK2 (UniProt P24941) (assay: Enzyme Assay). Details: concentration not given here.

inhibition, 100%:
NC(=O)c1c(NC(=O)c2ccncc2)sc2c1CCCC2
Cc1sc(NC(=O)c2cc(Cl)cc(Cl)c2)c(C(N)=O)c1C
NC(=O)/C=C\C(=O)N(C(N)=O)c1sc(Cc2ccccc2)cc1C(N)=O
CC(C)c1ccc(C(=O)Nc2sc(Cc3ccccc3)cc2C(N)=O)cc1
NC(=O)c1cc(-c2ccccc2)sc1NC(=O)/C=C/c1ccsc1
CC(C)c1cc(C(N)=O)c(NC(=O)C2CCCCCC2)s1
NC(=O)c1cc(Cc2ccccc2)sc1NC(=O)c1ccc2[nH]cnc2c1
Cc1ccc(O)c(C(=O)Nc2sc(-c3ccccc3)cc2C(N)=O)c1
NC(=O)c1c(NC(=O)CCCl)sc2c1CCCC2
COc1cc(/C=C\C(=O)Nc2scc(C)c2C(N)=O)cc(OC)c1
CC(C)c1cc(C(N)=O)c(NC(=O)CC2CCCC2)s1
NC(=O)c1cc(-c2ccccc2)sc1NC(=O)c1ccccc1Cl
CC(C)c1cc(C(N)=O)c(NC(=O)CCc2ccccc2)s1
CN1CCc2c(sc(NC(=O)/C=C\C(=O)Nc3cccc4ccccc34)c2C(N)=O)C1
Cc1ccc(C(=O)Nc2sc(-c3ccccc3)cc2C(N)=O)cc1O
CC(c1ccccc1)c1cc(C(N)=O)c(NC(=O)c2ccnc3ccccc23)s1 (centres undefined)
NC(=O)c1cc(-c2ccccc2)sc1NC(=O)CCc1cccs1
CC(c1ccccc1)c1cc(C(N)=O)c(NC(=O)Cc2cn(C)cn2)s1 (centres undefined)
NC(=O)CN(C(=O)c1ccco1)c1sc(Cc2ccccc2)cc1C(N)=O
Cc1sc(NC(=O)c2cc(=O)c3ccccc3o2)c(C(N)=O)c1C
CC(C)c1cc(C(N)=O)c(NC(=O)/C=C/c2ccncc2)s1
CN1CCc2c(sc(NC(=O)CCCc3c[nH]c4ccccc34)c2C(N)=O)C1
NC(=O)c1cc(-c2ccccc2)sc1NC(=O)c1ccc(Cl)nc1
CC(=O)N1CCC(C(=O)Nc2sc(C(C)c3ccccc3)cc2C(N)=O)CC1 (centres undefined)
CCC(=O)Nc1sc2c(c1C(N)=O)CCCC2
Cc1cc(C(=O)Nc2sc(Cc3ccccc3)cc2C(N)=O)cc(C)c1O
CC1NC(=O)NC1CCCCCC(=O)Nc1sc2c(c1C(N)=O)CCN(C)C2 (centres undefined)
Cc1ccc(S(=O)(=O)CC(=O)Nc2sc3c(c2C(N)=O)CCN(C)C3)cc1
CC(=O)Nc1ccc(C(=O)Nc2sc(C(C)c3ccccc3)cc2C(N)=O)cc1 (centres undefined)
